Here are results for 1 compound from article PMC5725665, “Discovery of a Highly Selective Cell‐Active Inhibitor of the Histone Lysine Demethylases KDM2/7” (Angewandte Chemie (International Ed. in English), 2017).

Assay [1] addresses T1, KDM7B PHD-finger domain (Homo sapiens, UniProt Q9UPP1).
T1 construct: gene PHF8; PHD-finger domain
Briefly: biochemical. Further details: AlphaScreen peptide displacement assay, methyl-lysine reader domains. The settings on record: read-out: IC50 reader domains, AlphaScreen. The method, then: (§1) S106 1.76 1.63 2.01 133 2.78 6.13 6.23 3.55 2.63 1.75 1.31 Table S-3: Summary of indoles tested. IC50 values correspond to KDM2A inhibition by AlphaScreen. 3.2 Selectivity-screening against other epigenetic writer and reader proteins Methyl-Lysine Reader domain assays. Fluorescence polarisation assays for methyl-lysine reader domains were carried out as described. AlphaScreen peptide displacement assays were performed according to manufacturer’s protocol (PerkinElmer, USA) with minor modifications. All reagents were diluted in 25 mM HEPES, 100 mM NaCl, 0.1 % BSA, pH 7.4 and 0.05 % CHAPS and allowed to equilibrate to room temperature prior to addition to plates. An 11-point 1:2.0

For assay [2], the target named is CHD1 (Homo sapiens, UniProt O14646). Briefly: biochemical. The following applies: read-out: IC50 reader domains, AlphaScreen. Further details: AlphaScreen peptide displacement assay, methyl-lysine reader domains. The protocol:
as §1

For assay [3], the target named is T2, KDM4A Tudor domain (Homo sapiens, UniProt O75164).
T2 construct: Tudor domain
T2 sequence (O75164 1-1064): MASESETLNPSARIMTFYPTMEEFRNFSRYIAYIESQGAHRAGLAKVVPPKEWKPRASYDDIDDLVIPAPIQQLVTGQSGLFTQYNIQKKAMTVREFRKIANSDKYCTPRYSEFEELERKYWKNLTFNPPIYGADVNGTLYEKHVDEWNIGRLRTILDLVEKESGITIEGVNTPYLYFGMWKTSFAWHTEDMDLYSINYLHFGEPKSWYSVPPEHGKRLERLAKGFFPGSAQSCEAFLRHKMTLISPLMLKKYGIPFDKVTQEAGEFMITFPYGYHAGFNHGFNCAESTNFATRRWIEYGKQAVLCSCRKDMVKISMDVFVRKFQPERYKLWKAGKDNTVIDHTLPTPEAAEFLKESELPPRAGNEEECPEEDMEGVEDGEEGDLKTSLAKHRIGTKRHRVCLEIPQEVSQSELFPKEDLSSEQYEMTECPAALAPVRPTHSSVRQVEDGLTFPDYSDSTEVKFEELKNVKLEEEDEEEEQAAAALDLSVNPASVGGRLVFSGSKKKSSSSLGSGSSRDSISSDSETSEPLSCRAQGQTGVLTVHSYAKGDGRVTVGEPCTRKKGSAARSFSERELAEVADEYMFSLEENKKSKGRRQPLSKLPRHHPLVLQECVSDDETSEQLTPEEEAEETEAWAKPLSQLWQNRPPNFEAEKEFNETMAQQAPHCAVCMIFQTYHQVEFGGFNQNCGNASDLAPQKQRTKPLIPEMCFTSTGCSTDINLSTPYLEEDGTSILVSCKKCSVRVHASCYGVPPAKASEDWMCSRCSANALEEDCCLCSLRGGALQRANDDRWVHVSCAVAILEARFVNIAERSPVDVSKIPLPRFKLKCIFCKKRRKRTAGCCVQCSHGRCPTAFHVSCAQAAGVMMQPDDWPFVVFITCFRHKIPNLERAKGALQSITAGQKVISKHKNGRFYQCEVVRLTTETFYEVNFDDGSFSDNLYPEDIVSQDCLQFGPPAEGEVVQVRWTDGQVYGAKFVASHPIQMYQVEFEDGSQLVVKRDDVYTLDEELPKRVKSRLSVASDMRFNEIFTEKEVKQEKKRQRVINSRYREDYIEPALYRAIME
As to the kind of experiment: biochemical. More on the design: AlphaScreen peptide displacement assay, methyl-lysine reader domains. The settings on record: read-out: IC50 reader domains, AlphaScreen. The protocol: as §1

In assay [4] the target is T3, SGF29 (Homo sapiens, UniProt Q96ES7).
T3 sequence (Q96ES7 1-293): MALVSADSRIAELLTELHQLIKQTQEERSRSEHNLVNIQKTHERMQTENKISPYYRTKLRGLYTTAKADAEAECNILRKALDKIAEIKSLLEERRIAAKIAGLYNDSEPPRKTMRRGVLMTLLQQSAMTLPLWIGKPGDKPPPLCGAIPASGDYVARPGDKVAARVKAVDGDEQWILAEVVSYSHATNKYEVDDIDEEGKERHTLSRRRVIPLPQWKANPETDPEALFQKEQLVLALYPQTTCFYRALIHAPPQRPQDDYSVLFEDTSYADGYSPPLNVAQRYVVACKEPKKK
Briefly: biochemical. The settings on record: read-out: IC50 reader domains, AlphaScreen. More on the design: AlphaScreen peptide displacement assay, methyl-lysine reader domains. The protocol:
as §1

The target in assay [5] is SPIN1 (Homo sapiens, UniProt Q9Y657). Briefly: biochemical. Further details: AlphaScreen peptide displacement assay, methyl-lysine reader domains. The following applies: read-out: IC50 reader domains, AlphaScreen. The protocol: as §1
The target in assay [6] is T4, KDM7A (Homo sapiens, UniProt Q6ZMT4).
T4 construct: isolated enzyme
T4 sequence (Q6ZMT4 1-941): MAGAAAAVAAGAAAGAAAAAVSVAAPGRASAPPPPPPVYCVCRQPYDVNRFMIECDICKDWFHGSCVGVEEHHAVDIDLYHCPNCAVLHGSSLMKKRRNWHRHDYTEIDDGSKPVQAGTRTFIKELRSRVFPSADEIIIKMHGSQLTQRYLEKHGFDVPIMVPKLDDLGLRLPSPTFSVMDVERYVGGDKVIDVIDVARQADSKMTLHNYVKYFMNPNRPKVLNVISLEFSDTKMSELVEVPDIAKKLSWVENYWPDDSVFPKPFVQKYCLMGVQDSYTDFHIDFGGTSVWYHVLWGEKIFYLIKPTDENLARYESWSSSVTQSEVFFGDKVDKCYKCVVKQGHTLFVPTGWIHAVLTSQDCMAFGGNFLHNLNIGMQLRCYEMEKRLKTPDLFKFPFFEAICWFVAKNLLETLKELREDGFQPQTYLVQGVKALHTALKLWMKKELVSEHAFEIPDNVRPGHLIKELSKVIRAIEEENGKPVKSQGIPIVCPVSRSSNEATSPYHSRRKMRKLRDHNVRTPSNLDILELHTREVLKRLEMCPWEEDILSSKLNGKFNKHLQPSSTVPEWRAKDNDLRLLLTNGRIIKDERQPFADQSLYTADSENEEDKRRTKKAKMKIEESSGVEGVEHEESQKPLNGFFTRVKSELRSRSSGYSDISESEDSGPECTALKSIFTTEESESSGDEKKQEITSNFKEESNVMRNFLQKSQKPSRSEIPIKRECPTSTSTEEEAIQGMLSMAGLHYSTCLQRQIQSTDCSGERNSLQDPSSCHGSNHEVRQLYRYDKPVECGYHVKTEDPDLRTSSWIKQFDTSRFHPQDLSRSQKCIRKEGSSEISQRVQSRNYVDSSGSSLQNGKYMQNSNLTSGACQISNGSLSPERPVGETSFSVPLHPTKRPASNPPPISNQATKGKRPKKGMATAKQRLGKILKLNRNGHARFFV
As to the kind of experiment: AlphaScreen demethylase assay. In kind it is biochemical.

The structures appear in SMILES notation.

T1 sequence (Q9UPP1 whole entry, the tested form may be a part): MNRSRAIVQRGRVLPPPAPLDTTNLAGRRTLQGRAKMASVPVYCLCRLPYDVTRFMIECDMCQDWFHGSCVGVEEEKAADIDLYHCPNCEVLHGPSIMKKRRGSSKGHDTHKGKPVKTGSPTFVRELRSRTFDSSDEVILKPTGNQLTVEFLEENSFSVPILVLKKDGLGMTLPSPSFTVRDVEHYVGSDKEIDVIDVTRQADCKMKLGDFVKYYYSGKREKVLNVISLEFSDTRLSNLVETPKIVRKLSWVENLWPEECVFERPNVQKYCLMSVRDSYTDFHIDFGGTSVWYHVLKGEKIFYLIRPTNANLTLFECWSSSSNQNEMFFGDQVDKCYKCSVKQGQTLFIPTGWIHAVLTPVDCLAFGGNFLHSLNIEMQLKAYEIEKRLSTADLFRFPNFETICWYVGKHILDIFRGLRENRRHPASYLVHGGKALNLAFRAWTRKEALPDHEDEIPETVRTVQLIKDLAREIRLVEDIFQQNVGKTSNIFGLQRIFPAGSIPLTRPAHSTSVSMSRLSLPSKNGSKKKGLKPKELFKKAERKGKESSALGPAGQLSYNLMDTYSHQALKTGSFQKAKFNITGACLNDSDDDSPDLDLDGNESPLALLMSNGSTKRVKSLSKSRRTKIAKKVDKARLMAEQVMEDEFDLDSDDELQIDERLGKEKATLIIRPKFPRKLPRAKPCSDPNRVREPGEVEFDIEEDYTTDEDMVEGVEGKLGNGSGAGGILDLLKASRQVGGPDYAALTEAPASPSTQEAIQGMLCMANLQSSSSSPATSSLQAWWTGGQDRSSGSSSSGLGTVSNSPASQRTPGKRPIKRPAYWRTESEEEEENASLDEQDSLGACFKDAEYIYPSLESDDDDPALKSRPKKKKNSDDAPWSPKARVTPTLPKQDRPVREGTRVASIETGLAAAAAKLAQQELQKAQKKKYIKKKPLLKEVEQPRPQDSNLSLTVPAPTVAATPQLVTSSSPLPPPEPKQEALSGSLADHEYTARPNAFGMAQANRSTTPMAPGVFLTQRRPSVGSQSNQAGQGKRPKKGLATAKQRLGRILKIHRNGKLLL
SPIN1, sequence (Q9Y657 whole entry, the tested form may be a part): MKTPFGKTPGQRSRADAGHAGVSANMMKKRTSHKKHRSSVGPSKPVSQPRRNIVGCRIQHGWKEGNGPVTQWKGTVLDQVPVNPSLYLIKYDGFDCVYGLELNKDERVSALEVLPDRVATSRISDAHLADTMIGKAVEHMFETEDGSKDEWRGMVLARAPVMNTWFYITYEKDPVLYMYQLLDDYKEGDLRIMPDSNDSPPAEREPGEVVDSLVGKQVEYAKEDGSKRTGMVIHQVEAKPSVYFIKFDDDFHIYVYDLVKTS
CHD1, sequence (O14646 whole entry, the tested form may be a part): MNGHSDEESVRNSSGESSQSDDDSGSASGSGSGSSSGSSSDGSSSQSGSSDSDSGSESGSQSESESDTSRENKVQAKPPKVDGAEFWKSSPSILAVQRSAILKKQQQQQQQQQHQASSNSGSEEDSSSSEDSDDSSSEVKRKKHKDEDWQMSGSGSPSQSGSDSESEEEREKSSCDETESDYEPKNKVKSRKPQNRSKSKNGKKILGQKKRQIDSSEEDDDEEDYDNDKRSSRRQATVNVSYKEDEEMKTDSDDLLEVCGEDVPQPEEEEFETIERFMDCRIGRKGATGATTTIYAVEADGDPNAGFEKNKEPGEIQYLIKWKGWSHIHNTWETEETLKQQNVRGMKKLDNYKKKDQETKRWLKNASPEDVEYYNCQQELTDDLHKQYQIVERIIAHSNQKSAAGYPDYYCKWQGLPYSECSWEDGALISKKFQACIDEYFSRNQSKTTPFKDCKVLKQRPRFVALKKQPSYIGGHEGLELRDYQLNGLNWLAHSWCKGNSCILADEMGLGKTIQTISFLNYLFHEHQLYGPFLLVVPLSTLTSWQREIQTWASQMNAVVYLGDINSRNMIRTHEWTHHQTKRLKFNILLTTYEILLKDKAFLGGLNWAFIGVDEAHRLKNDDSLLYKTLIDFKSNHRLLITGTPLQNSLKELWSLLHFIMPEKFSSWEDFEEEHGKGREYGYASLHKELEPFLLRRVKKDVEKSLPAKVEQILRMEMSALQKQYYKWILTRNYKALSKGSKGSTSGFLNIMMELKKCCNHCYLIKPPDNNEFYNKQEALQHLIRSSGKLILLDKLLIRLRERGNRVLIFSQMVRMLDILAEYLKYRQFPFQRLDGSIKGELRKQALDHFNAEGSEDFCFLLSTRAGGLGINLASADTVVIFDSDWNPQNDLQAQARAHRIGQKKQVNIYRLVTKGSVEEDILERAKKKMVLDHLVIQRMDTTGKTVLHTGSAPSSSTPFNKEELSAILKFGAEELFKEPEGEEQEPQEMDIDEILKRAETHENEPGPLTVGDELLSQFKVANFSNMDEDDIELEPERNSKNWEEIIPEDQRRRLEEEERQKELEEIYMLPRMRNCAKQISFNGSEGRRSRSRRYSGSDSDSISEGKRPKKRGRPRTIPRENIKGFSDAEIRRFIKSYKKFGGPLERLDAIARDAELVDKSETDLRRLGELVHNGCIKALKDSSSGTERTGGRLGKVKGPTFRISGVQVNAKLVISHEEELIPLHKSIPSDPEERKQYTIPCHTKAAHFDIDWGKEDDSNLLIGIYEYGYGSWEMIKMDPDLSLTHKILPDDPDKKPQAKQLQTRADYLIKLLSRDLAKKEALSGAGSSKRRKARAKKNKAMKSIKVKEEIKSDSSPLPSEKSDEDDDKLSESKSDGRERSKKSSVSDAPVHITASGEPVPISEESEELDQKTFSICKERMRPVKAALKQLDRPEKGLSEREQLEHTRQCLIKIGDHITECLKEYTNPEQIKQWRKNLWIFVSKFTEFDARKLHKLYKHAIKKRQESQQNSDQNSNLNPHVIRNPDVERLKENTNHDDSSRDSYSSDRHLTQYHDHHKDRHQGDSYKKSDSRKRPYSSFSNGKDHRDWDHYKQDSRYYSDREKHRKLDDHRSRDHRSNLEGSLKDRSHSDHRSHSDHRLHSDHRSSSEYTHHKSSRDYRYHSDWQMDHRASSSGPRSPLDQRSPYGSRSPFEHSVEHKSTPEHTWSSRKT

Turning to `CC(=O)N1c2ccccc2[C@@](C#N)(c2ccccc2)[C@@H]1c1cncc(CCCCCCCN2CCCC2)c1` [(S,S)-6], the IC50 in assay [1] was more than 20 µM; in assay [2], more than 20 µM; in assay [3], more than 20 µM; in assay [4], more than 20 µM; in assay [5], more than 20 µM; in assay [6], 0.19 µM.
